Test results: patent US9278958B2, “Anti-cancer compounds” (KATHOLIEKE UNIVERSITEIT LEUVEN, priority 2012, dated 2016)

Legend:
CEM cells = experiment: Cytostatic assay, CEM; type: cell-based; conditions: for IC50: Homo sapiens, CCRF-CEM, CEM cells, Table 7, 5-arylthiomethyl-substituted 2-amino-3-carboxymethylthiophenes, read-out: IC50 (μM) CEM; for Ratio (tumor cell selectivity): ratio IC50 HeLa / IC50 CEM, Table 7
Method: (§1) To each well of a 96-well microtiter plate were added 5-7.5×10^4 cells and a given amount of the test compound. The cells were allowed to proliferate for 48 h to 96 h (depending on the nature of the cell line) at 37° C. in a humidified CO2-controlled atmosphere. At the end of the incubation period, the cells were counted in a Coulter Counter (Coulter Electronics Ltd, Harpenden Herts, United Kingdom).

[1] = tested on: HeLa cervix carcinoma cells; experiment: Cytostatic assay, HeLa; type: cell-based, human; conditions: Homo sapiens; HeLa cells; Table 7, 5-arylthiomethyl-substituted 2-amino-3-carboxymethylthiophenes; read-out: IC50 (μM) HeLa
Method: as §1

SMILES	IC50 (CEM cells) [µM]	IC50 [1] [µM]	Ratio (tumor cell selectivity) (CEM cells)
COC(=O)c1cc(CCCSC2CCCCC2)sc1N [TJ170, Methyl 2-amino-5-(3-(cyclohexylthio)propyl)thiophene-3-carboxylate]	0.57	55	96
COC(=O)c1cc(CSC2CCCC2)sc1N [TJ179, Methyl 2-amino-5-(cyclopentylthiomethyl)thiophene-3-carboxylate]	1.8	80	44
COC(=O)c1cc(CSc2ccc(-c3ccccc3)cc2)sc1N [TJ184, Methyl 2-amino-5-((biphenyl-4-ylthio)methyl)thiophene-3-carboxylate]	1.2	55	46

Second part, led by results:

IC50 (CEM cells) [µM]	IC50 [1] [µM]	SMILES	Ratio (tumor cell selectivity) (CEM cells)
0.34	49	CCc1ccc(SCc2cc(C(=O)OC)c(N)s2)cc1 [TJ185, Methyl 2-amino-5-((4-ethylphenylthio)methyl)thiophene-3-carboxylate]	144
0.46	46	COC(=O)c1cc(CSc2ccc(C(C)C)cc2)sc1N [TJ186, Methyl 2-amino-5-((4-isopropylphenylthio)methyl)thiophene-3-carboxylate]	100
1.2	74	COC(=O)c1cc(CSCCc2ccccc2)sc1N [TJ187, Methyl 2-amino-5-(phenethylthiomethyl)thiophene-3-carboxylate]	62
